Results published in ChEMBL document CHEMBL4041507, “Design, synthesis and biological evaluation of [1,2,4]triazolo[1,5-a]pyrimidines as potent lysine specific demethylase 1 (LSD1/KDM1A) inhibitors” (Eur J Med Chem, 2017).
Activity calls are given as the source filed them. The calls are words filed in the database; no cut-off is given here.

Legend:
[1] = molecular target: Lysine-specific histone demethylase 1A (Homo sapiens, UniProt O60341)
Description: Inhibition of recombinant human LSD1 (157 to 852 residues) expressed in Escherichia coli BL21(DE3) using H3K4me2 as substrate preincubated for 1 hr followed by substrate addition by fluorescence assay

[2] = tested on: MGC-803; assay: cells; conditions: Homo sapiens, MGC-803, read-out: GI
Description: Cytotoxicity against human MGC803 cells assessed as growth inhibition at 10 uM by MTT assay relative to control

[3] = tested on: ECa-109 cell line; assay: cells; conditions: Homo sapiens, ECa-109, read-out: GI
Description: Cytotoxicity against human EC109 cells assessed as growth inhibition at 10 uM by MTT assay relative to control

[4] = tested on: A549; assay: cells; conditions: Homo sapiens, A549, read-out: GI
Description: Cytotoxicity against human A549 cells assessed as growth inhibition at 10 uM by MTT assay relative to control

[5] = tested on: PC-9; assay: cells; conditions: Homo sapiens, PC-9, read-out: GI
Description: Cytotoxicity against human PC9 cells assessed as growth inhibition at 10 uM by MTT assay relative to control

[6] = tested on: A549; assay: cells; conditions: Homo sapiens
Description: Cytotoxicity against human A549 cells assessed as growth inhibition by MTT assay

[7] = tested on: PC-9; assay: cells; conditions: Homo sapiens
Description: Cytotoxicity against human PC9 cells assessed as growth inhibition by MTT assay

[8] = tested on: PC-9; assay: Potency index, ratio of 5-fluorouracil IC50 to compound IC50 for human PC9 cells; format: functional
[9] = tested on: MGC-803; assay: cells; conditions: Homo sapiens
Description: Cytotoxicity against human MGC803 cells assessed as growth inhibition by MTT assay

[10] = tested on: ECa-109 cell line; assay: cells; conditions: Homo sapiens
Description: Cytotoxicity against human EC109 cells assessed as growth inhibition by MTT assay

[11] = tested on: MGC-803; assay: Anti-migratory activity against human MGC803 cells at 10 uM after 24 hrs by Hoechst 33258 staining based transwell assay relative to control; format: functional; conditions: MGC-803, 24 h
[12] = tested on: MGC-803; assay: Anti-migratory activity against human MGC803 cells after 24 hrs by Hoechst 33258 staining based transwell assay; format: functional, cell-based
[13] = tested on: MGC-803; assay: Effect on E-cadherin expression in human MGC803 cells at 5 to 10 uM after 24 hrs by Western blot method; format: functional, cell-based
[14] = tested on: MGC-803; assay: Effect on N-cadherin expression in human MGC803 cells at 5 to 10 uM after 24 hrs by Western blot method; format: functional, cell-based
[15] = tested on: PC-9; assay: Anti-migratory activity against human PC9 cells after 24 hrs by Hoechst 33258 staining based transwell assay; format: functional, cell-based
[16] = tested on: PC-9; assay: Increase in E-cadherin expression in human PC9 cells at 5 to 10 uM after 24 hrs by Western blot method; format: functional, cell-based
[17] = tested on: PC-9; assay: Decrease in N-cadherin expression in human PC9 cells at 5 to 10 uM after 24 hrs by Western blot method; format: functional, cell-based

Row | Compound | IC50 [1] [µM] | inhibition of growth at 10 µM [2] [%] | inhibition of growth at 10 µM [3] [%] | inhibition of growth at 10 µM [4] [%] | inhibition of growth at 10 µM [5] [%] | IC50 [6] [µM] | IC50 [7] [µM] | Ratio IC50 [8] | IC50 [9] [µM] | IC50 [10] [µM] | inhibition at 10 µM [11] [%] | Activity [12] | Activity [13] | Activity [14] | Activity [15] | Activity [16] | Activity [17]
1 | COc1cc(Nc2cc(C)nc3nc(SCc4ccccc4)nn23)cc(OC)c1OC | > 10 | 32.8 | 41.6 | 37.9 | 13.5 | – | – | – | – | – | – | – | – | – | – | – | –
2 | Cc1cc(NCCCn2ccnc2)n2nc(SCc3ccccc3)nc2n1 | > 10 | 26.2 | 12.8 | 50.2 | 47.7 | 16.1 | 12.3 | – | – | – | – | – | – | – | – | – | –
3 | COc1cc(/C=C/C(=O)c2ccc(Nc3cc(C)nc4nc(SCc5nc6ccccc6[nH]5)nn34)cc2)cc(OC)c1OC | > 10 | 81.3 | 76.4 | 71.6 | 93.1 | 8.79 | 0.57 | 4 | 2.46 | 3.23 | – | – | – | – | – | – | –
4 | Cc1cc(Nc2ccc(Cl)cc2)n2nc(SCc3nc4ccccc4[nH]3)nc2n1 | > 10 | 16.8 | 41.2 | 34.9 | 33.2 | – | – | – | – | – | – | – | – | – | – | – | –
5 | Cc1cc(N2CCC(N3CCCCC3)CC2)n2nc(SCc3ccccc3)nc2n1 | > 10 | 32.8 | 0.3 | 56.5 | 35.6 | 8.87 | – | – | – | – | – | – | – | – | – | – | –
6 | Cc1cc(Nc2ccc(Br)cc2)n2nc(SCc3nc4ccccc4[nH]3)nc2n1 | > 10 | 36.7 | 43.8 | 35.2 | 36.4 | – | – | – | – | – | – | – | – | – | – | – | –
7 | Cc1cc(NNC(=O)c2cnccn2)n2nc(SCc3ccccc3)nc2n1 | 1.19 | 35.3 | 23.3 | 40.9 | 63.2 | – | 12.7 | – | – | – | – | – | – | – | – | – | –
8 | Cc1cc(Nc2ccc(C(=O)/C=C/c3cccs3)cc2)n2nc(SCc3nc4ccccc4[nH]3)nc2n1 | > 10 | 29.6 | 38.3 | 51.1 | 40.4 | 9.9 | 11 | – | 7.88 | 10.6 | – | – | – | – | – | – | –
9 | Cc1cc(N2CCOCC2)n2nc(SCc3ccccc3)nc2n1 | > 10 | 31 | 10.6 | 45.4 | 27.3 | – | – | – | – | – | – | – | – | – | – | – | –
10 | Cc1ccc(Nc2cc(C)nc3nc(SCc4ccccc4)nn23)cc1 | > 10 | 26 | 44.7 | 33.7 | 30.2 | – | – | – | – | – | – | – | – | – | – | – | –
11 | Cc1cc(NNC(N)=S)n2nc(SCc3ccccc3)nc2n1 | 0.154 | 2.1 | 14.2 | 25.6 | 30.7 | – | – | – | – | – | 21 | Dose-dependent effect | inactive | inactive | Dose-dependent effect | Active | Active
12 | Cc1cc(OCCN2CCCC2)n2nc(SCc3ccccc3)nc2n1 | > 10 | 28.8 | 11.4 | 49.8 | 43.6 | 22.8 | – | – | – | – | – | – | – | – | – | – | –
13 | CCC1(c2ccc(Nc3cc(C)nc4nc(SCc5nc6ccccc6[nH]5)nn34)cc2)CCC(=O)NC1=O (stereo not drawn) | > 10 | 1.1 | 38.2 | 49.2 | 47.9 | 17.5 | 12.2 | – | – | – | – | – | – | – | – | – | –
14 | COc1cc(Nc2cc(C)nc3nc(SCc4nc5ccccc5[nH]4)nn23)cc(OC)c1OC | > 10 | 28 | 34.1 | 52.4 | 42.9 | 18 | – | – | – | – | – | – | – | – | – | – | –
15 | Cc1cc(Nc2ccccc2)n2nc(SCc3nc4ccccc4[nH]3)nc2n1 | > 10 | 17.9 | 39.9 | 38 | 31.6 | – | – | – | – | – | – | – | – | – | – | – | –
16 | O=C(O)c1ccc(CN2CCC(CN[C@@H]3C[C@H]3c3ccccc3)CC2)cc1 [GSK2879552] | 0.024 | – | – | – | – | – | – | – | > 50 | > 50 | – | – | – | – | – | – | –

Row | Compound | IC50 [1] [µM] | inhibition of growth at 10 µM [2] [%] | inhibition of growth at 10 µM [3] [%] | inhibition of growth at 10 µM [4] [%] | inhibition of growth at 10 µM [5] [%] | IC50 [6] [µM] | IC50 [7] [µM] | Ratio IC50 [8] | IC50 [9] [µM] | IC50 [10] [µM] | inhibition at 10 µM [11] [%] | Activity [12] | Activity [13] | Activity [14] | Activity [15] | Activity [16] | Activity [17]
17 | Cc1cc(NNC(=O)c2cnccn2)n2nc(SCc3nc4ccccc4[nH]3)nc2n1 | 0.557 | 8.6 | 35.5 | 65.2 | 52.5 | 10.3 | 12.3 | – | – | – | – | – | – | – | – | – | –
18 | Cc1cc(Nc2cccc3c2CN(C2CCC(=O)NC2=O)C3=O)n2nc(SCc3nc4ccccc4[nH]3)nc2n1 (stereo not drawn) | > 10 | 11.4 | 32.2 | 48.2 | 52.4 | 19.8 | 15 | – | – | – | – | – | – | – | – | – | –
19 | Cc1cc(NCCCN2CCOCC2)n2nc(SCc3ccccc3)nc2n1 | > 10 | 24.9 | 9.3 | 49.2 | 51.9 | 17 | 15 | – | – | – | – | – | – | – | – | – | –
20 | Cc1cc(N2CCN(CCO)CC2)n2nc(SCc3ccccc3)nc2n1 | > 10 | 23.8 | 5.9 | 42.1 | 14.9 | – | – | – | – | – | – | – | – | – | – | – | –
21 | Cc1cc(Nc2ccc(C(=O)O)cc2)n2nc(SCc3ccccc3)nc2n1 | > 10 | 26.7 | 14.3 | 34.6 | 30.7 | – | – | – | – | – | – | – | – | – | – | – | –
22 | O=c1[nH]cc(F)c(=O)[nH]1 [FLUOROURACIL] | – | – | – | – | – | 14 | 1.99 | – | 10.1 | 26 | – | – | – | – | – | – | –
23 | Cc1cc(NCCc2c[nH]c3ccccc23)n2nc(SCc3ccccc3)nc2n1 | > 10 | 34.2 | 7 | 43.9 | 24 | – | – | – | – | – | – | – | – | – | – | – | –
24 | Cc1cc(Nc2ccc(F)cc2)n2nc(SCc3nc4ccccc4[nH]3)nc2n1 | > 10 | 19.2 | 39.7 | 36.6 | 27.6 | – | – | – | – | – | – | – | – | – | – | – | –
25 | Cc1cc(Nc2ccc(C#N)cc2)n2nc(SCc3nc4ccccc4[nH]3)nc2n1 | > 10 | 19.3 | 26.3 | 52.3 | 41.9 | 13.9 | – | – | – | – | – | – | – | – | – | – | –
26 | Cc1cc(Nc2ccc(F)cc2)n2nc(SCc3ccccc3)nc2n1 | > 10 | 19.7 | 37.6 | 41.8 | 43.5 | – | – | – | – | – | – | – | – | – | – | – | –
27 | Cc1cc(Nc2ccc(C(=O)O)cc2)n2nc(SCc3nc4ccccc4[nH]3)nc2n1 | > 10 | 0.4 | 4.5 | 5.6 | 11.9 | – | – | – | – | – | – | – | – | – | – | – | –
28 | Cc1cc(N2CCNCC2)n2nc(SCc3ccccc3)nc2n1 | > 10 | 32.4 | 23.9 | 41.4 | 29.3 | – | – | – | – | – | – | – | – | – | – | – | –
29 | Cc1cc(NCCCO)n2nc(SCc3ccccc3)nc2n1 | > 10 | 33.3 | 6.3 | 53.7 | 51.4 | 8.85 | 10.7 | – | – | – | – | – | – | – | – | – | –
30 | Cc1ccc(Nc2cc(C)nc3nc(SCc4nc5ccccc5[nH]4)nn23)cc1 | > 10 | 22.9 | 43.1 | 35.1 | 36.9 | – | – | – | – | – | – | – | – | – | – | – | –
31 | Cc1cc(Nc2ccccc2)n2nc(SCc3ccccc3)nc2n1 | > 10 | 35 | 12.9 | 50.2 | 40.2 | 16.4 | – | – | – | – | – | – | – | – | – | – | –
32 | Cc1cc(N)n2nc(SCc3ccccc3)nc2n1 | > 10 | 32.3 | 4.7 | 57.3 | 48.3 | 9.74 | 8.14 | – | – | – | – | – | – | – | – | – | –
